Data on eleven molecules can be found in patent US7868026B2, “Therapeutic compounds” (Pfizer Inc., priority 2005, dated 2011).

Common to all, as to assay type: biochemical
Assay [1] has as its target T1, CYP3A4 (Homo sapiens, UniProt P08684). The assay is described as follows: Determination of compound Kiapp against recombinant CYP3A4 enzyme (BFC fluorescent substrate). Summed up:
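Recombinant CYP3A4 (5.5 or 8 nM, with or without b5 depending on source) pre-incubated with inhibitor ≥30 min at room temperature in 100 mM sodium phosphate pH 7.0, 5 mM TCEP, 2% DMF. Reaction started with 200 uM NADPH and 5 uM BFC; initial fluorescence rates over 5 min fitted to Morrison tight-binding (non-partial) or Szedlacsek (partial) equations for Kiapp.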

Assay [2] concerns the target T1, CYP3A4. The assay is described as follows: Determination of IC50 against CYP3A4 by measurement of inhibition of testosterone metabolism (human liver microsomes, 6-β-OH-testosterone by LC-MS/MS). Also noted: 0.1 mg/mL human liver microsomes. The note with it: read-out: IC50 (Testo.). Summed up: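 Human liver microsomes (0.1 mg/mL) incubated with 25 μM testosterone and 1 mM NADPH in 100 mM potassium phosphate, pH 7.4, for eight minutes. 6-β-OH-testosterone measured by LC-MS/MS in MRM mode against an internal standard and quantified from a metabolite standard curve.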
In general terms: Liver microsomes are a subcellular fraction often used to study metabolism.

In assay [3] the target is T1, CYP3A4. The assay is described as follows: Determination of IC50 against CYP3A4 by measurement of inhibition of midazolam metabolism (human liver microsomes, 1-hydroxymidazolam by LC-MS/MS). Also noted: 0.1 mg/mL human liver microsomes. The note with it: 2 μM midazolam, 0.1 mg/mL human liver microsomes. A digest of the protocol:
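Human liver microsomes (0.1 mg/mL) incubated 8 min with 2 μM midazolam and 1 mM NADPH in 100 mM potassium phosphate, pH 7.4. 1-Hydroxymidazolam quantified by LC-MS/MS (MRM) as peak area ratio to internal standard against a metabolite standard curve.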

Setting [4] is: Baculo. enzyme preparation, read-out: Kiapp (BFC, Baculo.).
Setting [5] is: Super. enzyme preparation, read-out: Kiapp (BFC, Super.).

Read-outs that look alike come from different tables or passages of the source.

T1 sequence (P08684 whole entry): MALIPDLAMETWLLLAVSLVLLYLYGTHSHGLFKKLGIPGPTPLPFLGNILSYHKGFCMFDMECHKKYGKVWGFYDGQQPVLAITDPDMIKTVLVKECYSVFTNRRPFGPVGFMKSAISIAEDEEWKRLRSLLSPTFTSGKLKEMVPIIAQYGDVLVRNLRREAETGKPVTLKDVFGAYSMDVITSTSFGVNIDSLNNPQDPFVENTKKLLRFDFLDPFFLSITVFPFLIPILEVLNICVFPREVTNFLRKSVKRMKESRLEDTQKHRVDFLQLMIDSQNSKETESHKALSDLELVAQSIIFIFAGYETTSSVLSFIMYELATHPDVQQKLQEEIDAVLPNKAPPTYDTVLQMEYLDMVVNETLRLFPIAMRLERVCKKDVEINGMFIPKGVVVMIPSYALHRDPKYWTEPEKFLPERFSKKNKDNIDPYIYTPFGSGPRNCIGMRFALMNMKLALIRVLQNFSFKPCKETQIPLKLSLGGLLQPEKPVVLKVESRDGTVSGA

With `COc1ccc(CNC(=O)c2ccccc2S(=O)(=O)N(C)c2cccnc2)cc1` [Example 336, N-(4-methoxybenzyl)-2-{[methyl(pyridin-3-yl)amino]sulfonyl}benzamide], the Ki at CYP3A4 [1] (setting [4]) came out at 319 nM; at CYP3A4 [1] (setting [5]) it was 68.2 nM. The IC50 at CYP3A4 [2] came to 19 nM; on CYP3A4 [3] it was 37 nM.

Turning to `CCCN(CC1CC1)C(=O)c1ccccc1S(=O)(=O)N(C)c1cccnc1` [Example 337, N-(cyclopropylmethyl)-2-{[methyl(pyridin-3-yl)amino]sulfonyl}-N-propylbenzamide], the Ki on CYP3A4 [1] (setting [4]) was determined as 285 nM; on CYP3A4 [1] (setting [5]), 61.3 nM. The IC50 at CYP3A4 [2] was found to be 64 nM; at CYP3A4 [3] it was 88 nM.

Consider `COc1cncc(NS(=O)(=O)c2ccccc2C(=O)N(C)CCC(C)C)c1` [Example 338, 2-{[(5-methoxypyridin-3-yl)amino]sulfonyl}-N-methyl-N-(3-methylbutyl)benzamide], for which the Ki on CYP3A4 [1] (setting [4]) stood at 24 nM; at CYP3A4 [1] (setting [5]), 6.8 nM. Besides, the IC50 stood at 30 nM on CYP3A4 [2] and 23 nM on CYP3A4 [3].

`CCCCCN(C)C(=O)c1ccccc1S(=O)(=O)Nc1cncc(OC)c1` [Example 339, 2-{[(5-methoxypyridin-3-yl)amino]sulfonyl}-N-methyl-N-pentylbenzamide]: the Ki worked out at 35.4 nM on CYP3A4 [1] (setting [4]) and 6.1 nM at CYP3A4 [1] (setting [5]). The IC50 on CYP3A4 [2] was found to be 26 nM; at CYP3A4 [3] it was 14 nM.

As to `CCCCCNC(=O)c1ccccc1S(=O)(=O)N(C)c1cccnc1` [Example 340, 2-{[methyl(pyridin-3-yl)amino]sulfonyl}-N-pentylbenzamide], the Ki amounted to 338 nM at CYP3A4 [1] (setting [4]) and 92.2 nM at CYP3A4 [1] (setting [5]). Moreover, the values for the IC50 at CYP3A4 [2] and at CYP3A4 [3] were 44 nM and 41 nM, respectively.

For the molecule `CCCCCN(C)C(=O)c1ccccc1S(=O)(=O)Nc1cncc(C)c1` [Example 341, N-methyl-2-{[(5-methylpyridin-3-yl)amino]sulfonyl}-N-pentylbenzamide], the Ki at CYP3A4 [1] (setting [4]) turned out to be 36.6 nM; at CYP3A4 [1] (setting [5]) it was 13.1 nM. Besides, the IC50 was found to be 26 nM at CYP3A4 [2] and 22 nM on CYP3A4 [3].

For `Cc1cncc(NS(=O)(=O)c2ccccc2C(=O)NCc2cccc(F)c2)c1` [Example 342, N-(3-fluorobenzyl)-2-{[(5-methylpyridin-3-yl)amino]sulfonyl}benzamide], the Ki was determined as 63 nM at CYP3A4 [1] (setting [4]) and 13.1 nM on CYP3A4 [1] (setting [5]). Further, the IC50 at CYP3A4 [2] was found to be 15 nM; on CYP3A4 [3], 11 nM.

With `Cc1cncc(NS(=O)(=O)c2ccccc2C(=O)N2CCCC(C)(C)C2)c1` [Example 343, 2-[(3,3-dimethylpiperidin-1-yl)carbonyl]-N-(5-methylpyridin-3-yl)benzenesulfonamide], the figures for the Ki at CYP3A4 [1] (setting [4]) and on CYP3A4 [1] (setting [5]) were 206 nM and 60.3 nM, respectively. Further, the IC50 was 80 nM at CYP3A4 [2] and 37 nM at CYP3A4 [3].

As for `Cc1cncc(NS(=O)(=O)c2ccccc2C(=O)N(C)CCc2ccccc2)c1` [Example 344, N-methyl-2-{[(5-methylpyridin-3-yl)amino]sulfonyl}-N-(2-phenylethyl)benzamide], the Ki on CYP3A4 [1] (setting [4]) turned out to be 54.4 nM; on CYP3A4 [1] (setting [5]) it was 21.2 nM. In addition, the IC50 stood at 9 nM on CYP3A4 [2] and 7 nM on CYP3A4 [3].

On to `CN(c1cccnc1)S(=O)(=O)c1ccccc1C(=O)N1CCCC(C)(C)C1` [Example 345, 2-[(3,3-dimethylpiperidin-1-yl)carbonyl]-N-methyl-N-pyridin-3-ylbenzenesulfonamide], for which the results for the Ki at CYP3A4 [1] (setting [4]) and at CYP3A4 [1] (setting [5]) were 409 nM and 135 nM, respectively. Also, the IC50 on CYP3A4 [2] is 48 nM; on CYP3A4 [3], 75 nM.

For the molecule `COc1cncc(NS(=O)(=O)c2ccccc2C(=O)N(C)Cc2cccc(F)c2)c1` [Example 346, N-(3-fluorobenzyl)-2-{[(5-methoxypyridin-3-yl)amino]sulfonyl}-N-methylbenzamide], the results for the Ki on CYP3A4 [1] (setting [4]) and at CYP3A4 [1] (setting [5]) were 52 nM and 13.2 nM, respectively. The figures for the IC50 at CYP3A4 [2] and on CYP3A4 [3] were 11 nM and 19 nM, respectively.

Broadly, the IC50 is the midpoint of a concentration-inhibition curve.
